Source: patent publication US20240270762A1, “PENICILLIN-BINDING PROTEIN INHIBITORS” (priority 2021, published 2024)
In brackets after ≈: the same amount, converted by molar mass.

Experiments:
[1] = biological target: T1, PBP1a from Acinetobacter baumannii (ATCC 19606) (Acinetobacter baumannii, UniProt A0ABX6CK30); experiment: Bocillin-FL fluorescence polarization competition binding, A. baumannii PBP1a; details: fluorescence polarization competition binding assay using Bocillin-FL; read-out: A. baumannii PBP1a Potency
T1 sequence (A0ABX6CK30 1-851): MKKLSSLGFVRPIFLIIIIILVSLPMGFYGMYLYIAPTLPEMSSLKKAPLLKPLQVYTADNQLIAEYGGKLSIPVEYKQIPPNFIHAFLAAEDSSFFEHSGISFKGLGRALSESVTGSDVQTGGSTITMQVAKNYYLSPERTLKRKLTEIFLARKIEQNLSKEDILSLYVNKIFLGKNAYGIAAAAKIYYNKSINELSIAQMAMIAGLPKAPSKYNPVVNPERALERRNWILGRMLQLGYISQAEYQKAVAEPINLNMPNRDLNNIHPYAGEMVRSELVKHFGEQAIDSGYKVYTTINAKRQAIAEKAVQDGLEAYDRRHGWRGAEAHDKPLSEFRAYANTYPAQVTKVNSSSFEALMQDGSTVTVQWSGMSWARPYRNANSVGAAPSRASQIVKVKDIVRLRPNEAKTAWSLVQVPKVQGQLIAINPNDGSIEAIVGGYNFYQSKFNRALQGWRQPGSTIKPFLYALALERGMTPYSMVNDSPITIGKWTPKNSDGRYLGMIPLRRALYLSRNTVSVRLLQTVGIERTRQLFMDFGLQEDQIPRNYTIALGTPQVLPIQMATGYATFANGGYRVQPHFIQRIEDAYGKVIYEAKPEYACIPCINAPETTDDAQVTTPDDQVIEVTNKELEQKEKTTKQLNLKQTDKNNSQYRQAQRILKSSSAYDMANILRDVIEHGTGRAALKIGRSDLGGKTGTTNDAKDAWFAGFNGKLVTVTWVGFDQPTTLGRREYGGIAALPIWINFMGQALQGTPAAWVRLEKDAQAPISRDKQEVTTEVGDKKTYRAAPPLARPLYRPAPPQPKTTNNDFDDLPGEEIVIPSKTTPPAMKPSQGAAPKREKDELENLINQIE
Method in brief: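 Purified PBPs pre-incubated with inhibitor (E. coli PBP3 1.5 μM, 30 min; P. aeruginosa PBP3 0.75 μM, A. baumannii PBP1a 1 μM and PBP3 0.2 μM, 15 min), then Bocillin-FL 0.1 μM (0.05 μM for PBP1a) added; FP read up to 60 min. EC50 = concentration halving bound Bocillin-FL.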

P. aeruginosa ATCC 27853 = experiment: microbe, parasite or virus in culture; format: cell-based; details: Pseudomonas aeruginosa, ATCC27853, read-out: Minimum inhibitory concentration, P. aeruginosa ATCC 27853
N. gonorrhoeae FA1090 = experiment: Liquid broth MIC in Fastidious broth; details: Neisseria gonorrhoeae, FA1090, read-out: Minimum Inhibitory Concentration, FA 1090
N. gonorrhoeae WHO G = experiment: Liquid broth MIC in Fastidious broth; details: Neisseria gonorrhoeae, read-out: Minimum Inhibitory Concentration, WHO G
N. gonorrhoeae WHO Z = experiment: Liquid broth MIC in Fastidious broth; details: Neisseria gonorrhoeae, read-out: Minimum Inhibitory Concentration, WHO Z

SMILES	IC50 [1] [µM]	MIC (P. aeruginosa ATCC 27853) [µg/mL]	MIC (N. gonorrhoeae FA1090) [µg/mL]	MIC (N. gonorrhoeae WHO G) [µg/mL]	MIC (N. gonorrhoeae WHO Z) [µg/mL]
O=C(NCCCS(=O)(=O)N1CCN(C(=O)N[C@H](C(=O)N[C@H]2Cc3ccc(F)c(C(=O)O)c3OB2O)c2cc(F)c(O)c(O)c2Cl)C1=O)c1cccc(O)c1 [Example 270, (R)-3-((S)-2-(2-chloro-5-fluoro-3,4-dihydroxyphenyl)-2-(3-((3-(3-hydroxybenzamido)propyl)sulfonyl)-2-oxoimidazolidine-1-carboxamido)acetamido)-7-fluoro-2-hydroxy-3,4-dihydro-2H-benzo[e][1,2]oxaborinine-8-carboxylic acid]	> 250	32 to 64 (≈ 40.2 to 80.4 µM)	16 to 32 (≈ 20.1 to 40.2 µM)	> 64	> 64
O=C(NCCCS(=O)(=O)N1CCN(C(=O)N[C@@H](C(=O)N[C@H]2Cc3ccc(F)c(C(=O)O)c3OB2O)c2cc(F)c(O)c(O)c2Cl)C1=O)c1cccc(O)c1 [Example 271, (R)-3-((R)-2-(2-chloro-5-fluoro-3,4-dihydroxyphenyl)-2-(3-((3-(3-hydroxybenzamido)propyl)sulfonyl)-2-oxoimidazolidine-1-carboxamido)acetamido)-7-fluoro-2-hydroxy-3,4-dihydro-2H-benzo[e][1,2]oxaborinine-8-carboxylic acid]	> 250	2 to 4 (≈ 2.51 to 5.03 µM)	1 to 2 (≈ 1.26 to 2.51 µM)	16 to 32 (≈ 20.1 to 40.2 µM)	4 to 8 (≈ 5.03 to 10.1 µM)
O=C(NCCCS(=O)(=O)N1CCN(C(=O)NC(C(=O)N[C@H]2Cc3ccc(F)c(C(=O)O)c3OB2O)c2cc(F)c(O)c(O)c2Cl)C1=O)c1ccncc1 (stereo partly drawn) [Example 272, (3R)-3-(2-(2-chloro-5-fluoro-3,4-dihydroxyphenyl)-2-(3-((3-(isonicotinamido)propyl)sulfonyl)-2-oxoimidazolidine-1-carboxamido)acetamido)-7-fluoro-2-hydroxy-3,4-dihydro-2H-benzo[e][1,2]oxaborinine-8-carboxylic acid]	> 250	2 to 4 (≈ 2.56 to 5.12 µM)	4 to 8 (≈ 5.12 to 10.2 µM)	16 to 32 (≈ 20.5 to 41 µM)	4 to 8 (≈ 5.12 to 10.2 µM)
O=C(NCCCS(=O)(=O)N1CCN(C(=O)NC(C(=O)N[C@H]2Cc3ccc(F)c(C(=O)O)c3OB2O)c2cc(F)c(O)c(O)c2Cl)C1=O)c1cccnc1 (stereo partly drawn) [Example 273, (3R)-3-(2-(2-chloro-5-fluoro-3,4-dihydroxyphenyl)-2-(3-((3-(nicotinamido)propyl)sulfonyl)-2-oxoimidazolidine-1-carboxamido)acetamido)-7-fluoro-2-hydroxy-3,4-dihydro-2H-benzo[e][1,2]oxaborinine-8-carboxylic acid]	> 250	2 to 4 (≈ 2.56 to 5.12 µM)	4 to 8 (≈ 5.12 to 10.2 µM)	16 to 32 (≈ 20.5 to 41 µM)	4 to 8 (≈ 5.12 to 10.2 µM)
O=C(NCCCS(=O)(=O)N1CCN(C(=O)NC(C(=O)N[C@H]2Cc3ccc(F)c(C(=O)O)c3OB2O)c2cc(F)c(O)c(O)c2Cl)C1=O)c1nccs1 (stereo partly drawn) [Example 274, (3R)-3-(2-(2-chloro-5-fluoro-3,4-dihydroxyphenyl)-2-(2-oxo-3-((3-(thiazole-2-carboxamido)propyl)sulfonyl)imidazolidine-1-carboxamido)acetamido)-7-fluoro-2-hydroxy-3,4-dihydro-2H-benzo[e][1,2]oxaborinine-8-carboxylic acid]	> 250	2 to 4 (≈ 2.54 to 5.08 µM)	4 to 8 (≈ 5.08 to 10.2 µM)	16 to 32 (≈ 20.3 to 40.7 µM)	16 to 32 (≈ 20.3 to 40.7 µM)
O=C(O)c1c(F)ccc2c1OB(O)[C@@H](NC(=O)C(NC(=O)N1CCN(S(=O)(=O)CCCNC(=O)[C@@H]3CCCN3)C1=O)c1cc(F)c(O)c(O)c1Cl)C2 (stereo partly drawn) [Example 275, (3R)-3-(2-(2-chloro-5-fluoro-3,4-dihydroxyphenyl)-2-(2-oxo-3-((3-((S)-pyrrolidine-2-carboxamido)propyl)sulfonyl)imidazolidine-1-carboxamido)acetamido)-7-fluoro-2-hydroxy-3,4-dihydro-2H-benzo[e][1,2]oxaborinine-8-carboxylic acid]	> 250	2 to 4 (≈ 2.59 to 5.18 µM)	4 to 8 (≈ 5.18 to 10.4 µM)	16 to 32 (≈ 20.7 to 41.4 µM)	16 to 32 (≈ 20.7 to 41.4 µM)
O=C(NCCCS(=O)(=O)N1CCN(C(=O)NC(C(=O)N[C@H]2Cc3ccc(F)c(C(=O)O)c3OB2O)c2cc(F)c(O)c(O)c2Cl)C1=O)Nc1ccc(O)cc1 (stereo partly drawn) [Example 276, (3R)-3-(2-(2-chloro-5-fluoro-3,4-dihydroxyphenyl)-2-(3-((3-(3-(4-hydroxyphenyl)ureido)propyl)sulfonyl)-2-oxoimidazolidine-1-carboxamido)acetamido)-7-fluoro-2-hydroxy-3,4-dihydro-2H-benzo[e][1,2]oxaborinine-8-carboxylic acid]	> 250	2 to 4 (≈ 2.47 to 4.93 µM)	1 to 2 (≈ 1.23 to 2.47 µM)	16 to 32 (≈ 19.7 to 39.5 µM)	4 to 8 (≈ 4.93 to 9.87 µM)
